Values quoted from earlier work as cited in patent US20190110514A1, “KITS COMPRISING SATIETY-INDUCING FORMULATIONS” (PERORA GMBH, priority 2016, published 2019).

What was measured:
satiety signalling = details: infusion into the duodenum by feeding tube
[1] = rat feeding study; independent from intake

Row | true digestibility of stearic acid from tristearin [1] [g/g] | SMILES | satiety signalling (satiety signalling)
1 | – | CCCCCCCCCCCC(=O)O [lauric acid] | strong satiety signalling
2 | – | CCCCCCCC/C=C\CCCCCCCC(=O)O [oleic acid] | strong satiety signalling
3 | 0.15 | CCCCCCCCCCCCCCCCCC(=O)OCC(COC(=O)CCCCCCCCCCCCCCCCC)OC(=O)CCCCCCCCCCCCCCCCC [tristearin] | –
